From US9914722B2, “Compounds for treating spinal muscular atrophy” (PTC Therapeutics Inc., priority 2012, dated 2018)

How the values were obtained:
Smn protein = Smn protein assay (Smn HTRF) in cultured cells; format: cell-based, human; details: Homo sapiens, Fibroblast, GM03813 SMA Type 1 patient fibroblasts, 48 hours, HTRF; for maximal fold induction: 7-point concentration data, relative to vehicle, read-out: maximum fold (Fold) increase of Smn protein; for EC (1.5-fold): concentration producing 1.5 times Smn protein vs DMSO vehicle, read-out: EC1.5x for Smn protein expression
Protocol: Smn Protein Assay in Cultured Cells
The Smn HTRF (homogeneous time resolved fluorescence) assay is used to quantify the level of Smn protein in SMA patient fibroblast cells treated with test compounds.
Protocol. Cells are thawed and cultured in DMEM-10% FBS for 72 hours. Cells are trypsinized, counted and re-suspended to a concentration of 25,000 cells/mL in DMEM-10% FBS. The cell suspension is plated at 5,000 cells per well in a 96 well microtiter plate and incubated for 3 to 5 hours. […] Test compounds are serially diluted 3.16-fold in 100% DMSO to generate a 7-point concentration curve. 1 μL of test compound solution is transferred to cell-containing wells and cells are incubated for 48 hours in a cell culture incubator (37° C., 5% CO2, 100% relateive humidity). Triplicate samples are set up for each test compound concentration. After 48 hours, the supernatant is removed from the wells and 25 μL of the RIPA lysis buffer, containing protease inhibitors, is added to the wells and incubated with shaking at room temperature for 1 hour. 25 μL of the diluent is added and then 35 μL of the resulting lysate is transferred to a 384-well plate, where each well contains 5 μL of the antibody solution (1:100 dilution of anti-SMN d2 and anti-SMN kryptate in SMN reconstitution buffer). The plate is centrifuged for 1 minute to bring the solution to the bottom of the wells, then incubated overnight at room temperature. Fluorescence for each well of the plate at 665 nm and 620 nm is measured on an EnVision multilabel plate reader (Perkin-Elmer).
The normalized fluorescence signal is calculated for each sample, Blank and vehicle control well by dividing the signal at 665 nm by the signal at 620 nm. Normalizing the signal accounts for possible fluorescence quenching due to the matrix effect of the lysate. The AF value (a measurement of Smn protein abundance as a percent value) for each sample well is calculated by subtracting the normalized average fluorescence for the Blank control wells from the normalized fluorescence for each sample well, then dividing this difference by the normalized average fluorescence for the Blank control wells and multiplying the resulting value by 100. The ΔF value for each sample well represents the Smn protein abundance from test compound-treated samples. The ΔF value for each sample well is divided by the ΔF value for the vehicle control wells to calculate the fold increase in Smn protein abundance relative to the vehicle control.
For compounds of Formula (I) or a form thereof disclosed herein, Table 9 provides the EC1.5x for Smn protein expression that was obtained from the 7-point concentration data generated for each test compound according to the procedure of Biological Example 7. The term “EC1.5x for Smn protein expression” is defined as that concentration of test compound that is effective in producing 1.5 times the amount of Smn protein in an SMA patient fibroblast cell compared to the amount produced from the DMSO vehicle control. An EC1.5x for Smn protein expression between >3 μM and ≦10 μM is indicated by one star (*), an EC1.5x between >1 μM and ≦3 μM is indicated by two stars (**), an EC1.5x between >0.3 μM and ≦1 μM is indicated by three stars (***) and an EC1.5x≦0.3 μM is indicated by four stars (****).
For compounds of Formula (I) or a form thereof disclosed herein, Table 10 provides the maximum fold (Fold) increase of Smn protein that was obtained from the 7-point concentration data generated for each test compound according to the procedure of Biological Example 7. A maximum fold increase ≦1.2 is indicated by one star (*), a fold increase between >1.2 and ≦1.35 is indicated by two stars (**), a fold increase between >1.35 and ≦1.5 is indicated by three stars (***), a fold increase between >1.5 and ≦1.65 is indicated by four stars (****) and a fold increase >1.65 is indicated by five stars (*****).

[1] = tested on: full length SMN2 minigene mRNA containing SMN2 exon 7 (SMN2-A minigene); assay: SMN2 minigene mRNA splicing RT-qPCR assay in cultured cells; format: cell-based, human; details: Homo sapiens, HEK293-H; HEK293H cells stably transfected with SMN2-A minigene, 24 hours, 7-point concentration curve; concentration giving 1.5-fold SMN2 full length mRNA vs vehicle; read-out: EC1.5x for production of full length SMN2 mRNA
Protocol: SMN2 Minigene mRNA Splicing RT-qPCR Assay in Cultured Cells
The reverse transcription-quantitative PCR-based (RT-qPCR) assay is used to quantify the level of the full length SMN2 minigene mRNA containing SMN2 exon 7 in a HEK293H cell line stably transfected with said minigene and treated with a test compound.
Protocol. HEK293H cells stably transfected with the SMN2-A minigene construct described above (10,000 cells/well) are seeded in 200 μL of cell culture medium (DMEM plus 10% FBS, with 200 μg/mL hygromycin) in 96-well flat-bottom plates and the plate is immediately swirled to ensure proper dispersal of cells, forming an even monolayer of cells. Cells are allowed to attach for at least 4-6 hours. Test compounds are serially diluted 3.16-fold in 100% DMSO to generate a 7-point concentration curve. A solution of test compound (1 μL, 200× in DMSO) is added to each cell-containing well and the plate is incubated for 24 hours in a cell culture incubator (37° C., 5% CO2, 100% relative humidity). Two replicates are prepared for each test compound concentration. The cells are then lysed in Cells-To-Ct lysis buffer and the lysate is stored at −80° C.
Primer SMN Forward A (SEQ ID NO. 1) hybridizes to a nucleotide sequence in exon 7 (nucleotide 22 to nucleotide 40), primer SMN Reverse A (SEQ ID NO. 2) hybridizes to a nucleotide sequence in the coding sequence of Firefly luciferase, SMN Probe A (SEQ ID NO. 3) hybridizes to a nucleotide sequence in exon 7 (nucleotide 50 to nucleotide 54) and exon 8 (nucleotide 1 to nucleotide 21). The combination of these three oligonucleotides detects only SMN1 or SMN2 minigenes (RT-qPCR) and will not detect endogenous SMN1 or SMN2 genes.
The SMN forward and reverse primers are used at final concentrations of 0.4 μM. The SMN probe is used at a final concentration of 0.15 μM. The GAPDH primers are used at final concentrations of 0.2 μM and the probe at 0.15 μM.
The SMN2-minigene GAPDH mix (15 μL total volume) is prepared by combining 7.5 μL of 2×RT-PCR buffer, 0.4 μL of 25×RT-PCR enzyme mix, 0.75 μL of 20×GAPDH primer-probe mix, 4.0075 μL of water, 2 μL of 10-fold diluted cell lysate, 0.06 μL of 100 μM SMN forward primer, 0.06 μL of 100 μM SMN reverse primer, and 0.225 μL of 100 μM SMN probe.
PCR is carried out at the following temperatures for the indicated time: Step 1: 48° C. (15 min); Step 2: 95° C. (10 min); Step 3: 95° C. (15 sec); Step 4: 60° C. (1 min); then repeat Steps 3 and 4 for a total of 40 cycles.
Each reaction mixture contains both SMN2-A minigene and GAPDH primers/probe sets (multiplex design), allowing simultaneous measurement of the levels of two transcripts.
Two SMN spliced products are generated from the SMN2 minigene. The first spliced product containing exon 7, corresponding to SMN2 full length mRNA, is referred to herein using the term “SMN2 minigene FL.” The second spliced product lacking exon 7 is referred to herein using the term “SMN2 minigene Δ7.”
The increase of SMN2 minigene FL mRNA relative to that in cells treated with vehicle control is determined from real-time PCR data using a modified ΔΔCt method (as described in Livak and Schmittgen, Methods, 2001, 25:402-8). The amplification efficiency (E) is calculated from the slope of the amplification curve for SMN2 minigene FL and GAPDH mRNA individually. The abundance of SMN2 minigene FL and GAPDH mRNA are then calculated as (1+E)^−Ct, where Ct is the threshold value for each amplicon. The abundance of SMN2 minigene FL is normalized to GAPDH abundance. The normalized SMN2 minigene FL abundance from test compound-treated samples is then divided by normalized SMN2 minigene FL abundance from vehicle-treated cells to determine the level of SMN2 FL mRNA relative to vehicle control. […]

Compound `O=c1cc(-c2cccnc2)oc2ccc(N3CCNCC3)cc12` [Cpd 1, 6-(piperazin-1-yl)-2-(pyridin-3-yl)-4H-chromen-4-one] has a melting point of 177 to 180 °C, a maximal fold induction (Smn protein) of 1.35 to 1.5 and an EC (1.5-fold) [1] of 0.3 to 1 µM.

`CN1CCN(c2ccc3oc(-c4cccnc4)cc(=O)c3c2)CC1` [Cpd 2, 6-(4-methylpiperazin-1-yl)-2-(pyridin-3-yl)-4H-chromen-4-one] gave a maximal fold induction (Smn protein) of 1.2 to 1.35 and an EC (1.5-fold) [1] of 3 to 30 µM.

Compound `CCN1CCN(c2ccc3oc(-c4cccnc4)cc(=O)c3c2)CC1` [Cpd 3, 6-(4-ethylpiperazin-1-yl)-2-(pyridin-3-yl)-4H-chromen-4-one] has a melting point of 140 to 142 °C, a maximal fold induction (Smn protein) of no more than 1.2 and an EC (1.5-fold) [1] of 3 to 30 µM.

Compound `CC(C)N1CCN(c2ccc3oc(-c4cccnc4)cc(=O)c3c2)CC1` [Cpd 4, 6-[4-(propan-2-yl)piperazin-1-yl]-2-(pyridin-3-yl)-4H-chromen-4-one] has a melting point of 148 to 150 °C, a maximal fold induction (Smn protein) of no more than 1.2 and an EC (1.5-fold) [1] of 3 to 30 µM.

`CN1CCCN(c2ccc3oc(-c4cccnc4)cc(=O)c3c2)CC1` [Cpd 5, 6-(4-methyl-1,4-diazepan-1-yl)-2-(pyridin-3-yl)-4H-chromen-4-one] showed a melting point of 136 to 138 °C, a maximal fold induction (Smn protein) of 1.2 to 1.35 and an EC (1.5-fold) [1] of 3 to 30 µM.

Work on `O=c1cc(-c2cccnc2)oc2ccc(N3CCCNCC3)cc12` [Cpd 6, 6-(1,4-diazepan-1-yl)-2-(pyridin-3-yl)-4H-chromen-4-one] yielded a melting point of 162 to 164 °C, a maximal fold induction (Smn protein) of no more than 1.2 and an EC (1.5-fold) [1] of 3 to 30 µM.

With `O=c1cc(-c2ccccn2)oc2ccc(N3CCNCC3)cc12` [Cpd 7, 6-(piperazin-1-yl)-2-(pyridin-2-yl)-4H-chromen-4-one] the melting point was 170 to 172 °C, the maximal fold induction (Smn protein) was 1.5 to 1.65 and the EC (1.5-fold) (Smn protein) was 3 to 10 µM. It also gave an EC (1.5-fold) [1] of 0.3 to 1 µM.

With `O=c1cc(-c2cn3ccccc3n2)oc2ccc(N3CCNCC3)cc12` [Cpd 8, 2-(imidazo[1,2-a]pyridin-2-yl)-6-(piperazin-1-yl)-4H-chromen-4-one] the melting point was 207 to 211 °C, the maximal fold induction (Smn protein) was 1.5 to 1.65 and the EC (1.5-fold) (Smn protein) was 3 to 10 µM. For the same compound, the EC (1.5-fold) [1] was 0.3 to 1 µM.

`C[C@@H]1CN(c2ccc3oc(-c4cccnc4)cc(=O)c3c2)C[C@H](C)N1` [Cpd 9, 6-[(3R,5S)-3,5-dimethylpiperazin-1-yl]-2-(pyridin-3-yl)-4H-chromen-4-one] gave a melting point of 148 to 150 °C, a maximal fold induction (Smn protein) of 1.5 to 1.65 and an EC (1.5-fold) (Smn protein) of 3 to 10 µM. It also gave an EC (1.5-fold) [1] of 1 to 3 µM.

`CC1(C)CN(c2ccc3oc(-c4cccnc4)cc(=O)c3c2)CCN1` [Cpd 10, 6-(3,3-dimethylpiperazin-1-yl)-2-(pyridin-3-yl)-4H-chromen-4-one] showed a melting point of 140 to 142 °C, a maximal fold induction (Smn protein) of 1.35 to 1.5 and an EC (1.5-fold) [1] of 1 to 3 µM.

With `C[C@@H]1CN(c2ccc3oc(-c4cccnc4)cc(=O)c3c2)CCN1` [Cpd 11, 6-[(3R)-3-methylpiperazin-1-yl]-2-(pyridin-3-yl)-4H-chromen-4-one] the melting point was 148 to 150 °C, the maximal fold induction (Smn protein) was 1.35 to 1.5 and the EC (1.5-fold) (Smn protein) was 3 to 10 µM. For the same compound, the EC (1.5-fold) [1] was 0.3 to 1 µM.

With `CN1CCN(c2ccc3oc(-c4ccccn4)cc(=O)c3c2)CC1` [Cpd 12, 6-(4-methylpiperazin-1-yl)-2-(pyridin-2-yl)-4H-chromen-4-one] the melting point was 150 to 152 °C, the maximal fold induction (Smn protein) was no more than 1.2 and the EC (1.5-fold) [1] was 3 to 30 µM.

In the case of `C[C@@H]1CN(c2ccc3oc(-c4ccccn4)cc(=O)c3c2)C[C@H](C)N1` [Cpd 13, 6-[(3R,5S)-3,5-dimethylpiperazin-1-yl]-2-(pyridin-2-yl)-4H-chromen-4-one], the melting point is reported as 166 to 168 °C, the maximal fold induction (Smn protein) is reported as 1.35 to 1.5 and the EC (1.5-fold) [1] is reported as 1 to 3 µM.

Work on `O=c1cc(-c2ccccn2)oc2ccc(N3CCCNCC3)cc12` [Cpd 14, 6-(1,4-diazepan-1-yl)-2-(pyridin-2-yl)-4H-chromen-4-one] yielded a melting point of 170 to 172 °C, a maximal fold induction (Smn protein) of no more than 1.2 and an EC (1.5-fold) [1] of 3 to 30 µM.

In the case of `CCOc1ccc(-c2cc(=O)c3cc(N4C[C@@H](C)N[C@@H](C)C4)ccc3o2)cc1` [Cpd 43, 6-[(3R,5S)-3,5-dimethylpiperazin-1-yl]-2-(4-ethoxyphenyl)-4H-chromen-4-one], the maximal fold induction (Smn protein) is reported as no more than 1.2 and the EC (1.5-fold) [1] is reported as 1 to 3 µM.

`Cc1cn2cc(-c3cc(=O)c4cc(N5CCNCC5)ccc4o3)nc2cn1` [Cpd 72, 2-(6-methylimidazo[1,2-a]pyrazin-2-yl)-6-(piperazin-1-yl)-4H-chromen-4-one] gave a maximal fold induction (Smn protein) greater than 1.65, an EC (1.5-fold) (Smn protein) of no more than 0.3 µM and an EC (1.5-fold) [1] of no more than 0.1 µM.
